Results as given in US10399931B2, “Octahydroanthracene compound, preparation method and application thereof” (SHANDONG XINHUA PHARMACEUTICAL CO., LTD., priority 2016, dated 2019).

What was measured:
[1] = system: Human leukemia HL60 cells; assay: MTT assay, proliferation of human leukemia HL60 cells; format: cell-based; settings: Homo sapiens, HL-60, 48 h, 10 μM, 48 h, Mean ± SE; read-out: Inhibitive rate (%) against HL60 cells
Protocol: (§1) The survival rate of cells was determined by MTT assay, which is based on the metabolic reduction of 3-(4,5-dimethyl-2thiahiazoyl)-3,5-di-phenyl-tetrazolium bromide (MTT) by viable cells. MTT is a yellow compound, a dye that accepts hydrogen ion, which can act on the respiratory chain in the mitochondria of viable cells. Under the action of succinate dehydrogenase and cytochrome C, the tetrazolium ring was cleaved to form blue Formazan crystals, and the amount of Formazan crystals generated was only proportional to the number of the viable cells. The enzymes disappeared in dead cells, so Formazan crystals could not be dissolved in MTT solution containing 20% sodium dodecyl sulfate (pH 4.7).
(§2) The cells in the logarithmic growth phase were selected and adjusted to an appropriate cell density, seeded in a 96-well plate, 100 μl/well, and cultured in a 37° C., 5% CO2 incubator. The cells were allowed to adhere overnight, then the culture medium was replaced and the drug was added to cultivate for 48 h. A blank control group, a drug administration group and a positive control group were set, with four repeats in each group.
(§3) After 48 h of drug treatment, the cells were incubated with 0.25 mg/ml MTT at 37° C. for 3-4 h, and 100 μl of dimethyl sulfoxide (DMSO) was added to each well after aspirating the culture solution.

[2] = system: Human cutaneous T-cell lymphoma Hut102 cells; assay: MTT assay, proliferation of human cutaneous T-cell lymphoma Hut102 cells; format: cell-based; settings: HuT-102, 10 μM, Mean ± SE, read-out: Inhibitive rate (%) against Hut102 cells
Protocol: as §1, §2, §3

[3] = system: Aβ metabolizing enzymes NEP and IDE; assay: Expression of Aβ metabolizing enzymes in the brain of APP/PS1 mice; format: in vivo
Protocol: After the behavioral experiment, the animals were anesthetized with an intraperitoneal injection of 3.5% chloral hydrate and cut off the heads quickly to take out the brains. The hippocampus and cortex of the brain were separated on ice, and then weighed and quickly frozen with liquid nitrogen, placed in a refrigerator at −80° C. for standby application.
The tissue lysate (5 μL PMSF protease inhibitor per mL of lysate) was added to the frozen brain tissue at a ratio of […] (6 mL/g tissue), and ultrasonically homogenized in an ice bath. After homogenization, the tissue homogenate was placed in crushed ice for 30 min, and then centrifuged at 12,000×g for 20 min at 4° C. The supernatant (about 200 μL) was taken and stored in a refrigerator at −80° C. for later use. A portion of the supernatant was taken for protein quantification.
Grayscale scanning of the X film was performed and the results were analyzed by the image analysis software of Quantity One 4.6.2. Differences and changes in the expression of the detected proteins between the groups were determined using β-actin as an internal reference. The relative value was calculated by the formula.

tau protein = assay: Tau protein phosphorylation; design: species or system mice; settings: mouse, in vivo
APP/PS1 transgenic mice [4] = assay: Morris water maze test (oriented navigation and probe test); format: in vivo; settings: for Number of times traversing the safe platform vs model group / Percentage of the swimming distance in the target quadrant vs model group / Swimming time in the target quadrant vs model group: probe test
Protocol: The drugs were administered three days after the adaptive feeding. Peanut oil was used as the solvent. The drug was intragastric administered once a day for 15 days. On the 6th to 9th day after the administration, the new object identification test was performed. On the 10th day, the Y-maze test was performed. On the 11th to 15th day, the Morris water maze test was performed to determine the improvement of learning and memory. The administration of the drugs was continued during the behavioral experiment until the animals were sacrificed (16th day).
The experimental device includes a black circular pool with a diameter of 100 cm and a height of 40 cm, and a white platform (safe platform) having a diameter of about 10 cm. The location of the safe platform could be moved. Morris Water Maze Video Detection and Analysis System was provided by the Institute of Materia Medica, China Academy of Medical Sciences. One day before the experiment, water was injected into the black circular pool (water temperature 22±1° C.), and white pigment was added to mix uniformly. The water surface was usually about 1 cm higher than the top of the safe platform. The pool was divided into four quadrants I, II, III and IV, and the safe platform was usually placed in the middle of the quadrant IV. The experiment was divided into two parts: (1) Oriented navigation: the animal grouping was input into a computer software in advance. The position of the safe platform was kept unchanged during the experiment. During the test, the experimental animal facing the pool wall was placed in the water from different inlets, and the computer simultaneously collected data and recorded the time to find the safe platform (escape latency). Data collection automatically stopped when the animal stayed on the safe platform for 10 s. The data acquisition time of the mouse was 60 s. If the animal could not find the safe platform within the specified time, the escape latency was recorded as 60 s. At the same time, the operator induced the animal to reach the safe platform and stay for 10 s. The animal was trained twice a day for 4 consecutive days. (2) Probe test: after the oriented navigation test is completed, the safe platform is removed and the animal was placed in the pool free to explore for 60 s. The camera system automatically recorded the time and distance of the experimental animal swimming in the quadrant of the safe platform within the specified time and the number of times passing through the location of the safe platform.

APP/PS1 transgenic mice [5] = assay: Nesting experiment; format: in vivo
Text: Each mouse was separately housed in a cage. On the first day of the test, two pieces of cotton (5 cm×5 cm) were placed in the cage. […]

mice = assay: LD50 test, single intragastric dose (preliminary safety evaluation); format: in vivo; settings: 5000 mg/kg intragastric
[6] = system: APP/PS1 double transgenic AD model mice; assay: Safety observations during repeated administration in the behavioral experiment; format: in vivo; settings: for Organ index of heart, liver, spleen and kidney: repeated administration (3 consecutive months)
Protocol: OAB-14 at a doge of 50, 100 and 200 mg/kg were respectively given to APP/PS1 double transgenic AD model mice aged 8 months by continuous intragastric administration for 14 days or 3 months (to 11 months old, equivalent to the middle- and late-aged AD), using donepezil as a positive control.

Structure (SMILES): CC1(C)CCC(C)(C)c2c1cc1c(c2NC(=O)c2ccc(NC(=O)NCCN)cc2)C(C)(C)CCC1(C)C [OAB-14, 1-(2-amino) ethyl-3-{4-[(1,1,4,4,5,5,8,8-octamethyl-1,2,3,4,5,6,7,8-octahydro-9-anthryl)carbamoyl]phenyl} urea]
- inhibition at 10 µM [1]: 24.3 ± 3.18%
- inhibition at 10 µM [2]: 41.2 ± 1.08%
- Expression of Aβ metabolizing enzymes NEP and IDE in the brain [3]: increasing the expression
- Tau protein phosphorylation (tau protein): reducing the tau protein phosphorylation
- Total swimming distance vs model group (APP/PS1 transgenic mice [4]; 100 mg/kg, fourth day of training): significantly reduced
- Escape latency vs model group (APP/PS1 transgenic mice [4]; 100 mg/kg, third and fourth days of training): significantly reduced
- Escape latency vs model group (APP/PS1 transgenic mice [4]; 200 mg/kg, from the second day of training): significant decrease
- Total swimming distance vs model group (APP/PS1 transgenic mice [4]; 200 mg/kg, from the third day of training): significant decrease
- Number of times traversing the safe platform vs model group (APP/PS1 transgenic mice [4]; 100 mg/kg): significantly increased
- Percentage of the swimming distance in the target quadrant vs model group (APP/PS1 transgenic mice [4]; 100 mg/kg): significantly increased
- Swimming time in the target quadrant vs model group (APP/PS1 transgenic mice [4]; 100 mg/kg): significantly increased
- Number of times traversing the safe platform vs model group (APP/PS1 transgenic mice [4]; 200 mg/kg): significantly increased
- Percentage of the swimming distance in the target quadrant vs model group (APP/PS1 transgenic mice [4]; 200 mg/kg): significantly increased
- Swimming time in the target quadrant vs model group (APP/PS1 transgenic mice [4]; 200 mg/kg): significantly increased
- Spatial learning and memory disorders of the APP/PS1 mice (APP/PS1 transgenic mice [4]; water maze oriented navigation, overall): significantly improved
- Nesting ability vs model group (APP/PS1 transgenic mice [5]; 100 mg/kg, at 12 h): significantly increased
- Nesting ability vs model group (APP/PS1 transgenic mice [5]; 200 mg/kg, at 6 h): significantly increased
- Nesting ability vs model group (APP/PS1 transgenic mice [5]; 200 mg/kg, at 12 h): significantly increased
- Nesting ability vs model group (APP/PS1 transgenic mice [5]; 200 mg/kg, at 24 h): significantly increased
- Abnormalities in organs such as heart, liver, spleen and kidney (mice): no abnormalities were detected
- Adverse reactions observed with the naked eye (mice): no visible adverse reactions were observed
- Changes in the main organ tissue sections compared with the blank group ([6]; 14 days or 3 months): no changes were observed
- General condition of the mice ([6]; low, medium and high dose, 3 consecutive months): in good condition
- Organ index of heart, liver, spleen and kidney ([6]; low, medium and high dose): not abnormal
- Organ index of heart, liver, spleen and kidney ([6]; low, medium and high dose, listed as OAR-14): not seen to be abnormal
